According to ChEMBL document CHEMBL5113480, “Discovery of novel biphenyl-substituted pyridone derivatives as potent non-nucleoside reverse transcriptase inhibitors with promising oral bioavailability” (Eur J Med Chem, 2022):

Legend:
[1] = Acute toxicity in mouse at 1.2 g/Kg,IG assessed as lung damage by H and E staining based analysis; settings: in vivo, po, 1200 mg/kg
[2] = Acute toxicity in mouse at 1.2 g/Kg,IG assessed as heart damage by H and E staining based analysis; assay type: tissue-based; settings: in vivo, po, 1200 mg/kg
[3] = tested on: Human immunodeficiency virus 1; experiment: Antiviral activity against HIV-1 F227L-V106A mutant infected in human MT4 cells assessed as reduction in viral replication by MTT assay; assay type: functional, organism-based; settings: Human immunodeficiency virus 1, F227L-V106A mutant
[4] = Selectivity index, ratio of CC50 for cytotoxicity against human MT4 cells to EC50 of Anti-HIV activity against HIV-1 IIIB infected in human MT4 cells; assay type: toxicity, cell-based; settings: read-out: Ratio CC50/EC50
[5] = Clearance in Sprague-Dawley rat at 5 mg/kg,po; assay type: ADME, organism-based; settings: in vivo
[6] = biological target: Voltage-gated inwardly rectifying potassium channel KCNH2 (Homo sapiens, UniProt Q12809); experiment: Inhibition of human ERG potassium channel expressed in CHO cells by automated patch clamp electrophysiological assay; assay type: toxicity, cell-based
[7] = tested on: Human immunodeficiency virus 1; experiment: Antiviral activity against HIV-1 Y181C mutant infected in human MT4 cells assessed as reduction in viral replication by MTT assay; assay type: functional, organism-based; settings: Human immunodeficiency virus 1, Y181C mutant
Cytochrome P450 2D6 = Cytochrome P450 2D6 (Homo sapiens, UniProt P10635); experiment: Inhibition of CYP2D6 (unknown origin); assay type: ADME
[8] = Acute toxicity in mouse at 1.2 g/Kg,IG assessed as mouse death; settings: in vivo, po, 1200 mg/kg
Cytochrome P450 3A4 [9] = biological target: T1, Cytochrome P450 3A4 (Homo sapiens, UniProt P08684); experiment: Inhibition of CYP3A4M (unknown origin); assay type: ADME
[10] = tested on: Human immunodeficiency virus 1; experiment: Antiviral activity against HIV-1 E138K mutant infected in human MT4 cells assessed as reduction in viral replication by MTT assay; assay type: functional, organism-based; settings: Human immunodeficiency virus 1, E138K mutant
[11] = Acute toxicity in mouse at 1.2 g/Kg,IG assessed as change in body weight; settings: in vivo, po, 1200 mg/kg
[12] = Acute toxicity in mouse at 1.2 g/Kg,IG assessed as spleen damage by H and E staining based analysis; settings: in vivo, po, 1200 mg/kg
[13] = tested on: Human immunodeficiency virus 1; experiment: Antiviral activity against HIV-1 K103N mutant infected in human MT4 cells assessed as reduction in viral replication by MTT assay; assay type: functional, organism-based; settings: Human immunodeficiency virus 1, K103N mutant
[14] = Half life in Sprague-Dawley rat at 1 mg/kg,iv; assay type: ADME, organism-based; settings: in vivo
[15] = Tmax in Sprague-Dawley rat at 1 mg/kg,iv; assay type: ADME, organism-based; settings: in vivo
[16] = Acute toxicity in mouse at 1.2 g/Kg,IG assessed as brain damage by H and E staining based analysis; assay type: tissue-based; settings: in vivo, po, 1200 mg/kg
[17] = MRT (0 to infinity) in Sprague-Dawley rat at 5 mg/kg,po; assay type: ADME, organism-based; settings: in vivo
[18] = AUC (0 to t) in Sprague-Dawley rat at 1 mg/kg,iv; assay type: ADME, organism-based; set-up: dose 1 mg/kg, route iv; settings: in vivo
[19] = MRT (0 to t) in Sprague-Dawley rat at 1 mg/kg,iv; assay type: ADME, organism-based; settings: in vivo
[20] = AUC (0 to infinity) in Sprague-Dawley rat at 5 mg/kg,po; assay type: ADME, organism-based; set-up: time infinity, dose 5 mg/kg, route po; settings: in vivo
[21] = Cmax in Sprague-Dawley rat at 5 mg/kg,po; assay type: ADME, organism-based; set-up: dose 5 mg/kg, route po; settings: in vivo
[22] = Acute toxicity in mouse at 1.2 g/Kg,IG assessed as behavioral abnormalities; settings: in vivo, po, 1200 mg/kg
Cytochrome P450 2C19 = Cytochrome P450 2C19 (Homo sapiens, UniProt P33261); experiment: Inhibition of CYP2C19 (unknown origin); assay type: ADME
[23] = tested on: Human immunodeficiency virus 1; experiment: Antiviral activity against HIV-1 ROD infected in human MT4 cells assessed as reduction in viral replication by MTT assay; assay type: functional, organism-based
[24] = tested on: Human immunodeficiency virus 1; experiment: Antiviral activity against HIV-1 Y188L mutant infected in human MT4 cells assessed as reduction in viral replication by MTT assay; assay type: functional, organism-based; settings: Human immunodeficiency virus 1, Y188L mutant
Cytochrome P450 3A4 [25] = biological target: T1, Cytochrome P450 3A4; experiment: Inhibition of CYP3A4T (unknown origin); assay type: ADME
[26] = AUC (0 to infinity) in Sprague-Dawley rat at 1 mg/kg,iv; assay type: ADME, organism-based; set-up: time infinity, dose 1 mg/kg, route iv; settings: in vivo
[27] = Clearance in Sprague-Dawley rat at 1 mg/kg,iv; assay type: ADME, organism-based; settings: in vivo
[28] = Acute toxicity in mouse at 1.2 g/Kg,IG assessed as liver damage by H and E staining based analysis; settings: in vivo, po, 1200 mg/kg
Cytochrome P450 1A2 = biological target: T2, Cytochrome P450 1A2 (Homo sapiens, UniProt P05177); experiment: Inhibition of CYP1A2 (unknown origin); assay type: ADME
T2 sequence (P05177 whole entry): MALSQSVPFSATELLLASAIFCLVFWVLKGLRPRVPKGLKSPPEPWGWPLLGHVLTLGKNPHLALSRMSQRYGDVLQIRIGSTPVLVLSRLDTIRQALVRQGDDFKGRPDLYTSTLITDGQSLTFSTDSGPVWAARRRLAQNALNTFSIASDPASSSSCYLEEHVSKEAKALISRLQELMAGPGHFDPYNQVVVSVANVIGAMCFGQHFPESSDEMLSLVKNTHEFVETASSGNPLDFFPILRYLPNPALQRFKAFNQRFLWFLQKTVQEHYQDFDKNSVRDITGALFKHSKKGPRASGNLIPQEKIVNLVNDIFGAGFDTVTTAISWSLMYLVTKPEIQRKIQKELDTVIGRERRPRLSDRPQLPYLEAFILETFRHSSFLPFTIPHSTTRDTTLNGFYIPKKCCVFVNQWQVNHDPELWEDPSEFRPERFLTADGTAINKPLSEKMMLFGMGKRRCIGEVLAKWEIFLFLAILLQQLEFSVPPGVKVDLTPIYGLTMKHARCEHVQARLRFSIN

[29] = tested on: Human immunodeficiency virus 1; experiment: Antiviral activity against HIV-1 L100I mutant infected in human MT4 cells assessed as reduction in viral replication by MTT assay; assay type: functional, organism-based; settings: Human immunodeficiency virus 1, L100I mutant
[30] = MRT (0 to t) in Sprague-Dawley rat at 5 mg/kg,po; assay type: ADME, organism-based; settings: in vivo
[31] = MRT (0 to infinity) in Sprague-Dawley rat at 1 mg/kg,iv; assay type: ADME, organism-based; settings: in vivo
[32] = Cmax in Sprague-Dawley rat at 1 mg/kg,iv; assay type: ADME, organism-based; set-up: dose 1 mg/kg, route iv; settings: in vivo
[33] = AUC (0 to t) in Sprague-Dawley rat at 5 mg/kg,po; assay type: ADME, organism-based; set-up: dose 5 mg/kg, route po; settings: in vivo
[34] = Half life in Sprague-Dawley rat at 5 mg/kg,po; assay type: ADME, organism-based; settings: in vivo
[35] = Acute toxicity in mouse at 1.2 g/Kg,IG assessed as kidney damage by H and E staining based analysis; settings: in vivo, po, 1200 mg/kg
[36] = biological target: Human immunodeficiency virus type 1 reverse transcriptase (Human immunodeficiency virus 1, UniProt Q72547); experiment: Inhibition of wild type HIV-1 Reverse transcriptase
[37] = tested on: Human immunodeficiency virus 1; experiment: Antiviral activity against HIV-1 IIIB infected in human MT4 cells assessed as reduction in viral replication by MTT assay; assay type: functional, organism-based; settings: Human immunodeficiency virus 1, IIIB
[38] = tested on: Human immunodeficiency virus 1; experiment: Antiviral activity against HIV-1 K103N-Y181C mutant infected in human MT4 cells assessed as reduction in viral replication by MTT assay; assay type: functional, organism-based; settings: Human immunodeficiency virus 1, K103N-Y181C mutant
[39] = Tmax in Sprague-Dawley rat at 5 mg/kg,po; assay type: ADME, organism-based; settings: in vivo
Cytochrome P450 2C9 = Cytochrome P450 2C9 (Homo sapiens, UniProt P11712); experiment: Inhibition of CYP2C9 (unknown origin); assay type: ADME
Cytochrome P450 2C9, sequence (P11712 whole entry): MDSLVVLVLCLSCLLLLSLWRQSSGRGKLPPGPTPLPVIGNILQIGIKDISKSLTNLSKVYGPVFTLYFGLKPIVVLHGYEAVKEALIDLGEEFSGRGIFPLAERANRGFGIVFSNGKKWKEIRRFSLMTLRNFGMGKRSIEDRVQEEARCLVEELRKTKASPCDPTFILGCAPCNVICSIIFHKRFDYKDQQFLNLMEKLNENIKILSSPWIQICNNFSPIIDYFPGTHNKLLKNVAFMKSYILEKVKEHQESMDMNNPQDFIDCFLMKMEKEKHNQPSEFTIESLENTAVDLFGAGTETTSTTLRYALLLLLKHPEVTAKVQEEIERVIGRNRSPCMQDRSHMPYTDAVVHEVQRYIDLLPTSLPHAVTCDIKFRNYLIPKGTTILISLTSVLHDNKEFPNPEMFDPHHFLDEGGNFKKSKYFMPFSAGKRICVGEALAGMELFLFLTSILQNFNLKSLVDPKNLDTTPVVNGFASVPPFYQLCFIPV

T1 sequence (P08684 whole entry): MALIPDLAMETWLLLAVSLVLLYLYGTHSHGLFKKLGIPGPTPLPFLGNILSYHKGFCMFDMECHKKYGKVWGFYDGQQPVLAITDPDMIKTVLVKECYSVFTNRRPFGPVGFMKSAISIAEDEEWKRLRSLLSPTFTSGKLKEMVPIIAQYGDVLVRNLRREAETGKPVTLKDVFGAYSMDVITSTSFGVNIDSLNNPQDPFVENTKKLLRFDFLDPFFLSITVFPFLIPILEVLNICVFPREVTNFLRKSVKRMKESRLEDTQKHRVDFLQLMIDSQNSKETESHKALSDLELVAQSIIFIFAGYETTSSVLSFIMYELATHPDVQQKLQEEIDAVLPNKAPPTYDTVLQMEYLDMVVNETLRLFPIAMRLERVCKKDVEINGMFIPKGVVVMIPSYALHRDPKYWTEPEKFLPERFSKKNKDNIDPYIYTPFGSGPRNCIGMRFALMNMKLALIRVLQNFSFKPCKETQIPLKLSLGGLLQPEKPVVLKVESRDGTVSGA
Cytochrome P450 2D6, sequence (P10635 whole entry): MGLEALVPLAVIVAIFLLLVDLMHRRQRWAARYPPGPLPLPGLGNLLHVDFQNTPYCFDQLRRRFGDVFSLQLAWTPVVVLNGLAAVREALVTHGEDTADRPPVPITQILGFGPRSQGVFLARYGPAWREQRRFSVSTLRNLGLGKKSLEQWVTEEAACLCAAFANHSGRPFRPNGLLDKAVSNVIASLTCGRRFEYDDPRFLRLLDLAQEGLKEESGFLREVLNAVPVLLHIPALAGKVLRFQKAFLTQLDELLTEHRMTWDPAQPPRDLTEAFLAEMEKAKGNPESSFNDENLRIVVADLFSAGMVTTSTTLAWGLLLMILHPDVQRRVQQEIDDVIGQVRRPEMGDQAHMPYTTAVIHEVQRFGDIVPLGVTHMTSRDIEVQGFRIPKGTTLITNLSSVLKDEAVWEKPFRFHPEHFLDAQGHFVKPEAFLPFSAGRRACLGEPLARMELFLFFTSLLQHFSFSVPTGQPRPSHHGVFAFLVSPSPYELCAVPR
Voltage-gated inwardly rectifying potassium channel KCNH2, sequence (Q12809 whole entry): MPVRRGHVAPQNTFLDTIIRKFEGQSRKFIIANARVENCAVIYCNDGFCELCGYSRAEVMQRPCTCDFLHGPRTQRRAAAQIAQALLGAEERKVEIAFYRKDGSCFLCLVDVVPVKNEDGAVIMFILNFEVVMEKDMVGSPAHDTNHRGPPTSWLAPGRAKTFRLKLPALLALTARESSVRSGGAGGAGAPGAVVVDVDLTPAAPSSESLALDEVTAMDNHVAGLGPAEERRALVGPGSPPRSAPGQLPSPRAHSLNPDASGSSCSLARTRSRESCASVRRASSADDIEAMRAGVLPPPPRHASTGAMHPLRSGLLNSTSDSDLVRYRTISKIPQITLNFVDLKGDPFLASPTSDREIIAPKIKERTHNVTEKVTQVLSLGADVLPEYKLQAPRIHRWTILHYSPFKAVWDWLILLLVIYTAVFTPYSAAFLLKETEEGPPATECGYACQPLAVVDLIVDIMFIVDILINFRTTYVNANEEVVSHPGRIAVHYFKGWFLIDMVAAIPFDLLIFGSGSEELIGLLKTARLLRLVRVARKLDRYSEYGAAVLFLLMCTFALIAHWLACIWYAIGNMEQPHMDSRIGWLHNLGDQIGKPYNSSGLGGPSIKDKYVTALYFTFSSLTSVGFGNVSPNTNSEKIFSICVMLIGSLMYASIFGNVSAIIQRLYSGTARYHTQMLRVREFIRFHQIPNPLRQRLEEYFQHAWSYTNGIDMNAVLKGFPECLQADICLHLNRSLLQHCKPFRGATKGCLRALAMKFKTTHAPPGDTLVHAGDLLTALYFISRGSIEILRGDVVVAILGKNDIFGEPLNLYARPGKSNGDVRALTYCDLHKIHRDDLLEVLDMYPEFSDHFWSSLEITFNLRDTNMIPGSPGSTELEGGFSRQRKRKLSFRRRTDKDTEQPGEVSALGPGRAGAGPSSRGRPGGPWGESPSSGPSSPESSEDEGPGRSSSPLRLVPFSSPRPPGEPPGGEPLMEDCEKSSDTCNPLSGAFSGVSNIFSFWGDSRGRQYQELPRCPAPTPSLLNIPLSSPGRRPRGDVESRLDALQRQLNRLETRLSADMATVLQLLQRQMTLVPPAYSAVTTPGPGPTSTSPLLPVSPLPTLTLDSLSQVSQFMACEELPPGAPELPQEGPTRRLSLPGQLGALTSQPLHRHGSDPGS
Cytochrome P450 2C19, sequence (P33261 whole entry): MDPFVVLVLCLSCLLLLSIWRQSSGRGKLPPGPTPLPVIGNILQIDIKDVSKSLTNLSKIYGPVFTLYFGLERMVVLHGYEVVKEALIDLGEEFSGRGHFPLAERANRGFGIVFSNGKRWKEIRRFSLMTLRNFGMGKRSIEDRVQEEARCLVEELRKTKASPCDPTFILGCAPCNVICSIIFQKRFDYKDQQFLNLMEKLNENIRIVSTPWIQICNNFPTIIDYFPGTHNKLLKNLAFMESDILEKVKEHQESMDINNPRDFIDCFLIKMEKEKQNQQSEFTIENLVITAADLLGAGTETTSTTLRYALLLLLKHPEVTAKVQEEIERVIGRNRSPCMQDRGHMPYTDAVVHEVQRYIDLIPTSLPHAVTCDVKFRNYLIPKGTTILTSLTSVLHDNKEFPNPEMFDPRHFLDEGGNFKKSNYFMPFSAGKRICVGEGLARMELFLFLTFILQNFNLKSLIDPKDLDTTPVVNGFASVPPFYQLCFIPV

Cc1cccc(-c2cc(C#N)cc(Oc3c(C(F)(F)F)ccn(Cc4n[nH]c(=O)n4C)c3=O)c2)c1
Activity [1]: Non-Toxic | Activity [2]: Non-Toxic | EC50 [3]: 27.5 µM | selectivity ratio [4]: 2020 | CL/F [5]: 13.2 mL/min/kg | IC50 [6]: > 200 µM | EC50 [7]: 58 nM | IC50 (Cytochrome P450 2D6): > 50 µM | Activity [8]: Non-Toxic | IC50 (Cytochrome P450 3A4 [9]): > 50 µM | EC50 [10]: 25 nM | Activity [11]: Non-Toxic | Activity [12]: Non-Toxic | EC50 [13]: 13 nM | half-life [14]: 114 min | Tmax [15]: 4.8 min | Activity [16]: Non-Toxic | MRT inf [17]: 13.9 h | AUC(0-t) [18]: 892 ng·h/mL | MRT last [19]: 2.03 h | AUC(0-inf) [20]: 6590 ng·h/mL | Cmax [21]: 583 ng/mL | Activity [22]: Non-Toxic | IC50 (Cytochrome P450 2C19): 28.6 µM | EC50 [23]: > 35 µM | EC50 [24]: 760 nM | IC50 (Cytochrome P450 3A4 [25]): 25.3 µM | AUC(0-inf) [26]: 940 ng·h/mL | clearance [27]: 17.9 mL/min/kg | Activity [28]: Non-Toxic | IC50 (Cytochrome P450 1A2): > 50 µM | EC50 [29]: 24 nM | MRT last [30]: 6.79 h | MRT inf [31]: 2.48 h | Cmax [32]: 469 ng/mL | AUC(0-t) [33]: 4980 ng·h/mL | half-life [34]: 507 min | Activity [35]: Non-Toxic | IC50 [36]: 41 nM | EC50 [37]: 13 nM | EC50 [38]: 260 nM | Tmax [39]: 6.67 h | IC50 (Cytochrome P450 2C9): 38.3 µM
